Measured values reported in ChEMBL document CHEMBL1201862, “PubChem BioAssay data set” (2004).
Active and inactive are the calls of the source.

What was measured:
[1] = biological target: T1, Estrogen receptor (Homo sapiens, UniProt P03372);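 further: potency for inhibiting coactivator peptide recruitment to the receptor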
T1 sequence (P03372 whole entry): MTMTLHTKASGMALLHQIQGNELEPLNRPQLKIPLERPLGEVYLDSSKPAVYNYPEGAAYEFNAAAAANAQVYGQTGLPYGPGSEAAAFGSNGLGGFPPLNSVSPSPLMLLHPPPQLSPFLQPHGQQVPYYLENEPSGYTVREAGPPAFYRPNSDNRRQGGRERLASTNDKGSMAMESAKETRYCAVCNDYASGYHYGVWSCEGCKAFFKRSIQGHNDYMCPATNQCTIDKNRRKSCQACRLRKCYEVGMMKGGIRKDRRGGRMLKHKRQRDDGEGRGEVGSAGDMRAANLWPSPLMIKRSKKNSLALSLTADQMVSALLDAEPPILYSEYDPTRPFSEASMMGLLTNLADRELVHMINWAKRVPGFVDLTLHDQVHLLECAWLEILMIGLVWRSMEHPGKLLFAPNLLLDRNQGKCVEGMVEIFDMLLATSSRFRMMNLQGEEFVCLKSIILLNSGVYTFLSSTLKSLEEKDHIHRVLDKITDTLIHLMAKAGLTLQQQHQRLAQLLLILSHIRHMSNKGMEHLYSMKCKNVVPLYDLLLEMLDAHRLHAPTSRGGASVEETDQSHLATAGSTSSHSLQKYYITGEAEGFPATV

[2] = inhibitors of intracellular T. cruzi replication, confirmation, NIH3T3 host cells, beta-gal luminescence (AID 2044); type: functional, cell-based;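 further: intracellular parasites grown in NIH/3T3 mouse fibroblasts as host cells; luminescent beta-galactosidase reporter signal from transgenic T. cruzi replicating inside host cells; inhibitors lower the luminescence signal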
[3] = cytotoxicity toward NIH3T3 fibroblasts, dose response, counter-screen, cell-based, ATP luminescence, mouse fibroblasts (AID 2010); type: functional;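 further: cells exposed to compound for about 90 hours before reading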
[4] = biological target: T2, RNA-binding protein pos-1 (Caenorhabditis elegans, UniProt G5EF15); test: inhibitors of POS-1/mex-3 RNA binding, dose response, biochemical, fluorescence polarization (AID 1964);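 further: purified POS-1 fused to maltose binding protein made in E. coli; potency of compounds blocking POS-1 binding to fluorescent RNA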
T2 sequence (G5EF15 whole entry): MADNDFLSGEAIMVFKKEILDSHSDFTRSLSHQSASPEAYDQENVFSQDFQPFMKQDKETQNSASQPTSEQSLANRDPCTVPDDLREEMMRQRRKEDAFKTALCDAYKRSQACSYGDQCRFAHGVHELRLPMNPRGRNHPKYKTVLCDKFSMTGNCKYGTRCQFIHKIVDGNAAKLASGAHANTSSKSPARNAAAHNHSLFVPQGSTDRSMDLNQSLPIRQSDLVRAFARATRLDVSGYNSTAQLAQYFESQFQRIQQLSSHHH

[5] = biological target: T3, Zinc finger protein mex-5 (Caenorhabditis elegans, UniProt Q9XUB2); test: MEX-5/TCR-2 RNA interaction inhibitors, dose response, biochemical, C. elegans, fluorescence polarization (AID 1960)
T3 sequence (Q9XUB2 whole entry): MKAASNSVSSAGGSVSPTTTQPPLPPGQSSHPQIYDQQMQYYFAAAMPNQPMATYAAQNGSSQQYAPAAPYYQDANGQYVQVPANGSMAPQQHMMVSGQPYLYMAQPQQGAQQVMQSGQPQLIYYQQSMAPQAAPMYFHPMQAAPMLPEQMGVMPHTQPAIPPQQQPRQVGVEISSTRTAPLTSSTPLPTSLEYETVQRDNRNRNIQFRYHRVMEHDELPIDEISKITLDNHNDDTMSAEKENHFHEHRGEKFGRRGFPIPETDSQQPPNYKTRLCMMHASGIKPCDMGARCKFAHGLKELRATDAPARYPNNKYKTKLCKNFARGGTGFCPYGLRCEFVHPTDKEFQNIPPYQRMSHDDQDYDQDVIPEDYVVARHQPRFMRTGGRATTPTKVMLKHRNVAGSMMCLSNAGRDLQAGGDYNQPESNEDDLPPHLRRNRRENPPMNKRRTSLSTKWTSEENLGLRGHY

[6] = biological target: Induced myeloid leukemia cell differentiation protein Mcl-1 (Homo sapiens, UniProt Q07820); type: functional
Sequence of Induced myeloid leukemia cell differentiation protein Mcl-1 (Q07820 whole entry): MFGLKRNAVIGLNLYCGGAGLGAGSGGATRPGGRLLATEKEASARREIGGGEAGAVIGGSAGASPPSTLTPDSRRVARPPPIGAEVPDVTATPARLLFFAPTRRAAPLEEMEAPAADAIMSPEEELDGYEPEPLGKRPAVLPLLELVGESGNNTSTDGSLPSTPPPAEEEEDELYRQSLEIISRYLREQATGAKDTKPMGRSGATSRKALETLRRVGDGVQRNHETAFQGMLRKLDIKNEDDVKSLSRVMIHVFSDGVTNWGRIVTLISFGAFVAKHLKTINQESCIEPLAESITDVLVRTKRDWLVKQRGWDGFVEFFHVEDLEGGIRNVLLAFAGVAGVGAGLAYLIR

[7] = biological target: Nonstructural protein 1 (Influenza A virus, UniProt Q194T2); type: functional, Influenza A virus (A/California/07/2009(H1N1))
Sequence of Nonstructural protein 1 (Q194T2 whole entry): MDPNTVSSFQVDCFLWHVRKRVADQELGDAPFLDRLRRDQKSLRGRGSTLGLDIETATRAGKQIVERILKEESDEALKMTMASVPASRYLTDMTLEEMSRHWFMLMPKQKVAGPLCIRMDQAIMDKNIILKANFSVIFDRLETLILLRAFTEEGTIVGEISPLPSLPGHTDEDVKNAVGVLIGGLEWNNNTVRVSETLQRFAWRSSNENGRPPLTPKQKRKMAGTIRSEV

[8] = tested on: BJ; test: cells; type: functional, cell-based; conditions: Homo sapiens
[9] = tested on: BJ; test: cytotoxicity toward BJ-TERT-LT-ST fibroblasts, dose response, cell-based, RAS-independent, luminescence (AID 1935); type: functional; conditions: Homo sapiens;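 further: BJ fibroblasts immortalized with TERT plus LT and ST oncogenes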
[10] = tested on: BJ; test: cytotoxicity toward BJ-TERT fibroblasts, dose response, cell-based, RAS-independent, luminescence (AID 1933); type: functional; conditions: Homo sapiens
[11] = cytotoxicity toward DRD oncogenic fibroblasts, dose response, cell-based, non-viral oncogenic, luminescence (AID 1934); type: functional; conditions: Homo sapiens
[12] = cytotoxicity in HEK-293T cells, dose response, cytotoxicity control for TCR NF-kB inhibitor project, luminescence, T-cell screen hits (AID 489026); type: functional, cell-based;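 further: cells exposed to compound about 14 hours before the viability readout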
[13] = biological target: Cytochrome P450 3A4 (Homo sapiens, UniProt P08684);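 further: CYP3A4 tested as one member of a cytochrome P450 panel screen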
Sequence of Cytochrome P450 3A4 (P08684 whole entry): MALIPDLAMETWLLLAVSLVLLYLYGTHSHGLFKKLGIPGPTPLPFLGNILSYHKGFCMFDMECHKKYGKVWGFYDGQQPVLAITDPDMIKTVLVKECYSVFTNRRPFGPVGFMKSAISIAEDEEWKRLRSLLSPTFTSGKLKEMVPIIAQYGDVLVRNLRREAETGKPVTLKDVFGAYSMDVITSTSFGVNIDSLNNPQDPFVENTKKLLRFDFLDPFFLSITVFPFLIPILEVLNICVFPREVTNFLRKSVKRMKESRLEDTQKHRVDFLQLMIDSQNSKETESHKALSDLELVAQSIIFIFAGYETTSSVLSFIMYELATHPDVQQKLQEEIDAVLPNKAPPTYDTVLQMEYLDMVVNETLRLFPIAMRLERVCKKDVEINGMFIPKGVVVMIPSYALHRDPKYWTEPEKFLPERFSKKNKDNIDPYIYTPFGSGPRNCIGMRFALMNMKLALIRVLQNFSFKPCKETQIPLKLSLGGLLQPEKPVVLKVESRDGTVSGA

[14] = biological target: T4, Cytochrome P450 1A2 (Homo sapiens, UniProt P05177);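 further: PubChem cytochrome P450 panel assay, CYP1A2 panel member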
T4 sequence (P05177 whole entry): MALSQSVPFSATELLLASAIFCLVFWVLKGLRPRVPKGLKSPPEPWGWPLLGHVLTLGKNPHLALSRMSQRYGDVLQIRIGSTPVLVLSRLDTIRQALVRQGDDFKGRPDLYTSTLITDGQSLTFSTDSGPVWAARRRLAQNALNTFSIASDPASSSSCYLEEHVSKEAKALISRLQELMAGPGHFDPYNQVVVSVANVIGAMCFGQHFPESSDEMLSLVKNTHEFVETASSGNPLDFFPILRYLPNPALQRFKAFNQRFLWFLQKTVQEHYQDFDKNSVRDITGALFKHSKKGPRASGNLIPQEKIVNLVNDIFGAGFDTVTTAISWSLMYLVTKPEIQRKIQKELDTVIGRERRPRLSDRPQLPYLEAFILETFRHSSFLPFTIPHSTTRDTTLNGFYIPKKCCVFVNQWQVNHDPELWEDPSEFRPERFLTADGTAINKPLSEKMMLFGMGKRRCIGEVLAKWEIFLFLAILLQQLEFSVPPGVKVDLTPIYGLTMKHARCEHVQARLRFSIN

[15] = biological target: T5, Long-chain-fatty-acid--AMP ligase FadD28 (Mycobacterium tuberculosis, UniProt P9WQ59); test: Fluorescence polarization aasay to screen for inhibitors that compete for the binding of FadD28 to a bisubstrate Measured in Biochemical System Using Plate Reader - 2147-01_Inhibitor_Dose_CherryPick_Activity.; type: functional, Mycobacterium tuberculosis H37Rv
T5 sequence (P9WQ59 whole entry): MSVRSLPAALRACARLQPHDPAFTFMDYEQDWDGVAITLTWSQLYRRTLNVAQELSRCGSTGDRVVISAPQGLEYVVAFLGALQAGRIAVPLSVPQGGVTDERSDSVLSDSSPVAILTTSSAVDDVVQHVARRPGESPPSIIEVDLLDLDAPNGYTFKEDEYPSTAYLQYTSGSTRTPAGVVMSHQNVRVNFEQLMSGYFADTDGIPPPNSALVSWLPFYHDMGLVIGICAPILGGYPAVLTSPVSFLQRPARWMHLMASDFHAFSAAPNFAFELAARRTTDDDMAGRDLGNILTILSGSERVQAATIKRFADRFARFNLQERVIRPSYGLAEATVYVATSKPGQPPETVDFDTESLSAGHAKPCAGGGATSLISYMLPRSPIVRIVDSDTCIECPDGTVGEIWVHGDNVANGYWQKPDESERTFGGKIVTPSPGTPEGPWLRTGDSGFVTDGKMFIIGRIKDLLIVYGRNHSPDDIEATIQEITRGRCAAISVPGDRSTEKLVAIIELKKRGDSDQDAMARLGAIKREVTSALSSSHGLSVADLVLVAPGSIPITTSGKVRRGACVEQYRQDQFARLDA

[16] = HEp-2 cell cytotoxicity, dose response, cytotoxicity control for RSV inhibitor project, HTS (AID 2410); type: functional; conditions: human respiratory syncytial virus
[17] = tested on: Streptococcus sp. 'group A'; test: growth inhibition of control SK(-) GAS strain, dose response, counter-screen for streptokinase expression inhibitor project, luminescence, kanamycin, BacTiterGlo, confirmation (AID 1900); type: functional, organism-based
[18] = tested on: Streptococcus; test: Group A Streptococcus viability loss, dose response, counter-screen for streptokinase expression inhibitor project, luminescence, BacTiterGlo (AID 1915); type: functional, organism-based;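 further: potency for reduction of bacterial viability or growth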
[19] = biological target: T6, Streptokinase A (Streptococcus pyogenes serotype M1, UniProt P10520); test: S. pyogenes streptokinase expression inhibitors, potency, dose response, plasminogen activation absorbance, OD405 (AID 1914); type: functional, Streptococcus pyogenes M1 GAS;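 further: secreted streptokinase activity via plasminogen activation per viability signal from cell pellet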
T6 sequence (P10520 whole entry): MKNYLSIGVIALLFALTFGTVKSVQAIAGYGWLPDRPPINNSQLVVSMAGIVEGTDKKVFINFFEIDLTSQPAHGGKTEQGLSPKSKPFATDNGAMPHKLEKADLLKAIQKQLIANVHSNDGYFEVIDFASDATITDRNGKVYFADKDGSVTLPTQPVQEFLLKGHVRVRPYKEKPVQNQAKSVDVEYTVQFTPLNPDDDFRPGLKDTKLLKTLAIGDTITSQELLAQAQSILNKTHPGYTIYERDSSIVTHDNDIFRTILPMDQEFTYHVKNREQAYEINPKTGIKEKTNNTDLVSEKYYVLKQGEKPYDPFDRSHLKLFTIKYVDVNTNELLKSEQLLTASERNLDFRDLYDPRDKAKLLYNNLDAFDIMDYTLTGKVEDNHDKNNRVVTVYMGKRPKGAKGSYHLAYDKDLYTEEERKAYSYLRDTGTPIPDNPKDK

[20] = biological target: Cytochrome P450 2C19 (Homo sapiens, UniProt P33261); test: Cytochrome panel assay with activity outcomes. Panel member name: p450-cyp2c19 Compounds with AC50 equal or less than 10 uM are considered active; type: functional; conditions: read-out: AC50
Sequence of Cytochrome P450 2C19 (P33261 whole entry): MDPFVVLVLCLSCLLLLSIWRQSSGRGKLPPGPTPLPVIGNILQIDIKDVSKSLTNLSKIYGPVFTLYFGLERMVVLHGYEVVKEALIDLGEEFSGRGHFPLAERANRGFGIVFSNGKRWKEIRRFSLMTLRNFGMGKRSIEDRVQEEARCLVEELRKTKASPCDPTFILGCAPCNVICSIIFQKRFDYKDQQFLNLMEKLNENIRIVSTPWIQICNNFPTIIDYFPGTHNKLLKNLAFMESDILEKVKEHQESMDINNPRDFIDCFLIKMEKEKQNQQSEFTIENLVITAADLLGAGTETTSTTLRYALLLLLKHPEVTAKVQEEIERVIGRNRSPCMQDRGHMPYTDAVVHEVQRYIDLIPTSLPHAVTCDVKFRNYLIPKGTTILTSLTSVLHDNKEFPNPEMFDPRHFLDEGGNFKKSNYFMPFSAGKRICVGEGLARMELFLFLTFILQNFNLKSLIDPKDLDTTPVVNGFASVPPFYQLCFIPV

[21] = biological target: Cytochrome P450 2C9 (Homo sapiens, UniProt P11712)
Sequence of Cytochrome P450 2C9 (P11712 whole entry): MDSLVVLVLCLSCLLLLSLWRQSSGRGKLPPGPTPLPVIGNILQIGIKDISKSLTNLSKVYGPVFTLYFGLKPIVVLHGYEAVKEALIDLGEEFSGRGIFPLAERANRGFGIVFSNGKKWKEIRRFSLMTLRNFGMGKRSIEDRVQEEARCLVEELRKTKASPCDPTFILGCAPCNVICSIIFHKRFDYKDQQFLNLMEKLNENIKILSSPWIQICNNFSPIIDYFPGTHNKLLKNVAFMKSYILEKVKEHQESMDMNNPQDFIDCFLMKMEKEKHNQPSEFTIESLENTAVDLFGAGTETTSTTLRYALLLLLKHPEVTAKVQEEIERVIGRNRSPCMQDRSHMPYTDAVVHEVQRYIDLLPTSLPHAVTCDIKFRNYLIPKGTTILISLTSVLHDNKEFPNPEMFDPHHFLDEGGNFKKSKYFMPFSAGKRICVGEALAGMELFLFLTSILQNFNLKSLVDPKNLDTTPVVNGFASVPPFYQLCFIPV

[22] = tested on: INS1; test: beta cell apoptosis inhibitors, cytokine rescue, dose response, luminescence, retest (AID 449756); type: functional, cell-based; conditions: Rattus norvegicus;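 further: cell death triggered by IL-1 beta plus TNF-alpha plus IFN-gamma mixture; protective hits raise ATP signal compared with cytokine alone wells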
[23] = biological target: Cytochrome P450 2D6 (Homo sapiens, UniProt P10635);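 further: CYP2D6 member of a cytochrome P450 panel assay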
Sequence of Cytochrome P450 2D6 (P10635 whole entry): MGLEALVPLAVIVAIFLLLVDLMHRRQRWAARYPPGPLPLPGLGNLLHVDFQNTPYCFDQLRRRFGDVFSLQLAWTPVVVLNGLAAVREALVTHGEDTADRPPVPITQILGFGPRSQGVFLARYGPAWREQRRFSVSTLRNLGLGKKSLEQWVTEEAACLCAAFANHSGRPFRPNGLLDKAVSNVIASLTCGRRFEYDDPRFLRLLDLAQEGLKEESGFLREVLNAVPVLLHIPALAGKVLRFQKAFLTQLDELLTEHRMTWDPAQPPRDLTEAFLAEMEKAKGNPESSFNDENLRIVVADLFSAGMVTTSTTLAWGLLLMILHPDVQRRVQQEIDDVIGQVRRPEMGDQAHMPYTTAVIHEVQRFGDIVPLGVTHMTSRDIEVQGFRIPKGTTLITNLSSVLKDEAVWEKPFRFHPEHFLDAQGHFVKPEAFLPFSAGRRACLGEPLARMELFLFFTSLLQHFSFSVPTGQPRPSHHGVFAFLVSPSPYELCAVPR

## COc1cccc2cc(-c3cn4ccc(C)cc4n3)c(=O)oc12
[1]
  IC50: 7.85 µM (active)

## N=c1c(C(=O)NCc2ccc(F)cc2)cc2c(=O)n3ccccc3nc2n1Cc1cccnc1
[1]
  IC50: 7.04 µM (active)
[2]
  EC50: 1.22 µM (active)
[3]
  EC50: > 60 µM (not active)
[4]
  EC50: 31.2 µM (inconclusive)
[5]
  EC50: 46 µM (active)

## O=C1NN(c2ccc(Cl)c(Cl)c2)C(=O)/C1=C/c1cccc(OC(=O)c2cccs2)c1
[1]
  IC50: > 50 µM (not active)
[6]
  IC50: 3.81 µM (active)

## COc1cc(OC)c2c(-c3ccccc3)cc(=O)oc2c1C(CCN1CCCCC1)c1ccc(N(C)C)cc1 (stereo not given)
[7]
  IC50: 11.9 µM (active)

## CCOC(=O)c1[nH]c2c(c1C)C(=O)CC(c1ccco1)C2 (stereo not given)
[1]
  IC50: 30.3 µM (not active)
[8]
  EC50: 0.594 µM (active)
[6]
  IC50: 6.08 µM (active)
[9]
  EC50: 0.354 µM (inconclusive)
[10]
  EC50: 0.334 µM (active)
[11]
  EC50: 0.328 µM (active)
[12]
  IC50: > 80 µM (inactive)

## O=C(c1cccc(F)c1)N1CCC2(CC1)CCN(c1cccc(-c3ccccc3)c1)CC2
[13]
  AC50: inconclusive
[14]
  AC50: 20 µM (inconclusive)

## O=C(NCCSCc1ccccc1)c1ccc(Cl)c(S(=O)(=O)N2CCOCC2)c1
[15]
  AC50: > 100 µM (inactive)

## O=C1NC(=S)N(C2CC2)C(=O)/C1=C/NNC(=O)c1ccccc1Cl
[7]
  IC50: 20.4 µM (active)

## CC(C)(C)c1nnc(NC(=O)c2cc(-c3ccccc3)nc3ccccc23)s1
[16]
  CC50: 14.1 µM (active)
[17]
  EC50: 9.69 µM (active)
[13]
  AC50: inconclusive
[18]
  EC50: 49.3 µM (active)
[19]
  EC50: > 150 µM (not active)

## Cc1ccc(CNC(=O)C(Cc2ccccc2)NS(=O)(=O)c2ccc(Br)s2)cc1 (stereo not given)
[15]
  AC50: 6.7 µM (active)

## O=C(c1ccc(Cl)cc1)N1CCN(c2cc(O)nnc2-c2ccccc2)CC1
[20]
  AC50: 1.41 µM (inconclusive)
[13]
  AC50: inconclusive
[21]
  AC50: 0.355 µM (inconclusive)

## CCOc1ccccc1/C=c1\sc2nc(-c3ccco3)nn2c1=O
[1]
  IC50: > 50 µM (not active)

## Cc1ccc(C2C(/C=N/c3c(C)n(C)n(-c4ccccc4)c3=O)=C(c3ccccc3)Oc3ccccc32)cc1 (stereo not given)
[20]
  AC50: 3.16 µM (inconclusive)
[22]
  AC50: 6.97 µM (active)
[7]
  IC50: > 100 µM (active)
[21]
  AC50: 2.24 µM (inconclusive)

## Cc1c(C2CCN(CCc3ccccc3)CC2)noc1-c1ccc(Cl)cc1
[23]
  AC50: 1.58 µM (inconclusive)
[13]
  AC50: inconclusive
[14]
  AC50: 25.1 µM (inconclusive)

## Cc1cccc(C)c1NC(=O)CN1CCN(CCCC(c2ccc(F)cc2)c2ccc(F)cc2)CC1 [LIDOFLAZINE]
[13]
  AC50: inconclusive
[21]
  AC50: 15.8 µM (inconclusive)
[14]
  AC50: 15.8 µM (inconclusive)
